These are literature values, as cited in patent US20170266197A1, “METHODS AND COMPOSITIONS FOR TREATING HEPATITIS B VIRUS INFECTIONS” (Indiana University Research and Technology Corporation, priority 2014, published 2017).

The test system of the data set is chronic hepatitis B infection.

With alpha interferon, the “patients who show a long term benefit” value (many patients relapse after treatment is stopped) was “about 30%”. Besides, the “patients who respond to the treatment” value (of the chronic carriers obtaining this therapy) is given as “about 40%”. Also, the “viral disappearance in treated patients” value (treated patients) is given as 10-20%.
